Tests used:
[1] = test system: lens elasticity; experiment: Pharmacological Test-3: lens elasticity, Compounds 5 and 6, 3 times per day for 14 days; format: in vivo,  mice; details: for Lens elasticity improvement: 0.03% (w/v) solution in Vehicle C, both eyes, 3 times per day for 14 days, 9-month-old mice; for lens elasticity improving effect: at a concentration of 0.03%
Protocol: The effects of Compounds 5 and 6 on the lens elasticity were investigated.
Compound 5 was stirred with the addition of Vehicle C to give a 0.03% (w/v) solution.
Compound 6 was stirred with the addition of Vehicle C to give a 0.03% (w/v) solution.
EV06 was stirred with the addition of Vehicle C to give a 0.03% (w/v) solution, which was used for comparison to the samples of Compounds 5 and 6.
1) Each test sample (2.5 μL/eye) was instilled into both eyes of 9-month-old […] mice with a Pipetman 3 times per day (around 9:00, 13:00 and 17:00) for 14 days. 2) After the final instillation, the mice were euthanized by carbon dioxide inhalation, and then the eyeballs were extracted and rinsed with Hank's balanced salt solution (HESS). 3) The sclera near the optic nerve was cut with a razor, the lens was removed through the incision, and the removed lens was immersed in HESS. 4) The lens was placed on a glass slide, and an all-in-one fluorescence microscope BZ-9000 (Keyence) was used to capture an image of the lens (Image a). 5) Next, one cover glass (Corning^(registered trade mark) 22×22 mm Square) was placed on the lens, and an image in which the thickness of the lens changed due to the weight was similarly captured (Image b). 6) A change in the lens diameter was calculated from the following Equation 1 wherein the lens diameter of Image a is subtracted from the lens diameter of Image b. Then, the lens elasticity improvement of each sample group compared with the vehicle control group was calculated from Equation 2 described below. The mean value of the vehicle control group was based on 8 eyes, and the mean value of each of the sample groups of Compounds 5 and 6 and EV06 was based on 10 eyes.
(§1) Change in lens diameter=Lens diameter in Image b of each test sample−Lens diameter in Image a of each test sample (Equation 1)
(§2) Lens elasticity improvement of each sample group=Mean change in lens diameter of each Test sample group−Mean change in lens diameter of Vehicle control group (Equation 2)

[2] = test system: lens elasticity; experiment: Pharmacological Test-1: lens elasticity after instillation 3 times per day for 12 to 15 days; format: in vivo, C57BL/6J mice; details: for Lens elasticity improvement: 0.03% (w/v) solution, 2.5 μL/eye, right eye, 3 times per day for 12 to 15 days, 8-month-old mice, vs vehicle control; for lens elasticity improving effect: at a concentration of 0.03%
Protocol: The effects of compounds 1 to 4 on the lens elasticity were examined. The tests were conducted with reference to the methods described in Invest Ophthalmol Vis Sci, 57, 2851-2863, 2016.
A vehicle (aqueous solution) comprising 0.1% (w/v) of ethyl pyruvate, 0.269% (w/v) of sodium dihydrogenphosphate monohydrate (NaH2PO4.H2O), 0.433% (w/v) of di sodium hydrogenphosphate (Na2HPO4), 0.2% (w/v) of hydroxypropyl methylcellulose, 0.5% (w/v) of NaCl, 1.0% (w/v) of polyoxyl 35 castor oil (hereinafter also referred to as “CO35”), and purified water (appropriate amount) was prepared.
Each of compounds 1 to 4 was stirred with the addition of the vehicle to give a 0.03% (w/v) solution.
EV06 was stirred with the addition of the vehicle to give a 0.03% (w/v) solution. (Test method) 1) Each test sample (2.5 μL/eye) was instilled into the right eye of 8-month-old C57BL/6J mice with a Pipetman 3 times per day (around 9:00, 13:00, 17:00) for 12 to 15 days. 2) After the final instillation, the mice were euthanized by carbon dioxide inhalation, and then the eyeballs were extracted and rinsed with Hank's balanced salt solution (HESS). 3) The sclera near the optic nerve was cut with a razor, the lens was removed through the incision, and the removed lens was immersed in HESS. 4) The lens was placed on a glass slide, and an all-in-one fluorescence microscope BZ-9000 (Keyence) was used to capture an image of the lens (Image a). 5) Next, one cover glass (Corning^registered trade mark) 22×22 mm Square) was placed on the lens, and an image in which the thickness of the lens changed due to the weight was similarly captured (Image b). 6) A change in the lens diameter was calculated from the following Equation 1 wherein the lens diameter of Image a is subtracted from the lens diameter of Image b. Then, the lens elasticity improvement of each sample group compared with the vehicle control group was calculated from Equation 2 described below. The mean value of the vehicle control group was based on 5 eyes, the mean value of each of the sample groups of compounds 1 to 4 was based on 10 eyes, and the mean value of EV06 sample group was based on 9 eyes.
as §1, §2

[3] = test system: lens elasticity; experiment: Pharmacological Test-2: lens elasticity at different concentrations, instillation 3 times per day for 12 to 15 days; format: in vivo, C57BL/6J mice; details: for Lens elasticity improvement: 3 times per day for 12 to 15 days, 7 to 8-month-old mice
Protocol: The effects of Compounds 1, 3, and 4 on the lens elasticity were investigated at different concentrations.
(§3) Vehicle A (aqueous solution) comprising 0.1% (w/v) of ethyl pyruvate, 0.269% (w/v) of sodium dihydrogenphosphate monohydrate (NaH2PO4.H2O), 0.433% (w/v) of disodium hydrogenphosphate (Na2HPO4), 0.2% (w/v) of hydroxypropyl methylcellulose, 0.5% (w/v) of NaCl, 0.2% (w/v) of 0035, and purified water (appropriate amount) was prepared.
as §3, with “B (emulsion)” for “A (aqueous solution)”, “CO35, 0.6% benzyl benzoate,” for “0035,”
as §3, with “Vehicle C” for “Vehicle A”, “NaCl, 1.0%” for “NaCl, 0.2%”
as §3, with “Vehicle D (emulsion)” for “Vehicle A (aqueous solution)”, “NaCl, 1.0%” for “NaCl, 0.2%”, “of CO35, 3.0% benzyl benzoate,” for “of 0035,”
A diluent (aqueous solution) comprising 0.1% (w/v) of ethyl pyruvate, 0.269% (w/v) of sodium dihydrogenphosphate monohydrate (NaH2PO4.H2O), 0.433% (w/v) of disodium hydrogenphosphate (Na2HPO4), 0.2% (w/v) of hydroxypropyl methylcellulose, 0.5% (w/v) of NaCl, and purified water (appropriate amount) was prepared.
Compound 1 was stirred with the addition of Vehicle C to prepare a 1.5% (w/v) emulsion, and the emulsion was diluted with the diluent to give a 0.3% (w/v) emulsion. Further, the resulting 0.3% (w/v) emulsion was diluted with the diluent to give a 0.03% (w/v) emulsion. Further, the resulting 0.03% (w/v) emulsion was diluted with the diluent to give a 0.003% (w/v) emulsion.
Compound 3 was stirred with the addition of Vehicle C to give a 1.5% (w/v) solution, and the resulting solution was diluted to give a 0.3% (w/v) solution. Further, the resulting 0.3% (w/v) solution was diluted with Vehicle A to give a 0.03% (w/v) solution. Further, the resulting 0.03% (w/v) solution was diluted with Vehicle A to give a 0.003% (w/v) solution.
Compound 4 was stirred with the addition of Vehicle D to give a 1.5% (w/v) emulsion, and the resulting emulsion was diluted with the diluent to prepare a 0.3% (w/v) emulsion. Further, the resulting 0.3% (w/v) emulsion was diluted with the diluent to give a 0.03% (w/v) emulsion. Further, the resulting 0.03% (w/v) emulsion was diluted with the diluent to give a 0.003% (w/v) emulsion.
EV06 was stirred with the addition of Vehicle A to give a 1.5% (w/v) solution, which was used for comparison to the samples of Compound 1 and 3.
EV06 was sonicated with the addition of Vehicle B to give a 1.5% (w/v) emulsion, which was used for comparison to Compound 4 sample.
(Test method) 1) Each test sample (2.5 μL/eye) was instilled into the right eye of 7 to 8-month-old C57BL/6J mice with a Pipetman 3 times per day (around 9:00, 13:00 and 17:00) for 12 to 15 days. 2) After the final instillation, the mice were euthanized by carbon dioxide inhalation, and then the eyeballs were extracted and rinsed with Hank's balanced salt solution (HESS). 3) The sclera near the optic nerve was cut with a razor, the lens was removed through the incision, and the removed lens was immersed in HESS. 4) The lens was placed on a glass slide, and an all-in-one fluorescence microscope BZ-9000 (Keyence) was used to capture an image of the lens (Image a). […]

SMILES	Lens elasticity improvement [1] [μm]	lens elasticity improving effect [1]	Lens elasticity improvement [2] [μm]	lens elasticity improving effect [2]	Lens elasticity improvement ([3]; 0.003% (w/v) sample) [μm]	Lens elasticity improvement ([3]; 0.03% (w/v) sample) [μm]	lens elasticity improvement compared with 1.5% EV06 group ([3]; 0.03% and 0.3% sample groups)	Lens elasticity improvement ([3]; 0.3% (w/v) sample) [μm]
Cc1ncc(COC(=O)CCCC[C@@H]2CCSS2)c2c1OC(C)(C)OC2 [Compound 6, (2,2,5-Trimethyl-4H-[1,3]dioxo[5,4-c]pyridin-8-yl)methyl (R)-5-(1,2-dithiolan-3-yl)pentanoate]	38.1	potent lens elasticity improving effect	–	–	–	–	–	–
C[N+](C)(CCOC(=O)CCCC[C@@H]1CCSS1)Cc1ccccc1.[Cl-] [Compound 2, (R)-2-((5-(1,2-Dithiolan-3-yl)pentanoyl)oxy)-N-benzyl-N,N-dimethylethan-1-aminium chloride]	–	–	6.1	did not show lens elasticity improving effect	–	–	–	–
O=C(CCCC[C@@H]1CCSS1)OC(CN1CCOCC1)CN1CCOCC1 [Compound 5, 1,3-Dimorpholinopropan-2-yl (R)-5-(1,2-dithiolan-3-yl)pentanoate]	40.7	potent lens elasticity improving effect	–	–	–	–	–	–
O=C(CCCC[C@@H]1CCSS1)OCCN1CCOCC1 [Compound 4, 2-Morpholinoethyl (R)-5-(1,2-dithiolan-3-yl)pentanoate]	–	–	37.5	potent lens elasticity improving effect	25.0	56.5	equivalent to or better than 1.5% EV06 group	52.9

Source: patent US20220151989A1, “LIPOIC ACID PRODRUG” (SANTEN PHARMACEUTICAL CO., LTD., priority 2019, published 2022)
